In brackets after ≈: the same amount, converted by molar mass. Activity calls are given as the source filed them. The calls are words filed in the database; no cut-off is given here.
How the values were obtained:
[1] = tested on: Lipopolysaccharide (LPS); experiment: Displacement of BODIPY-TR-cadaverine from Escherichia coli O111:B4 lipopolysaccharide assessed as increase in fluorescence at 5 ug/ml by fluorescence based assay relative to control; details: dose 5.0 µg/ml
[2] = tested on: Escherichia coli; experiment: Antibacterial activity against Escherichia coli KCTC 1682 strain assessed as bacterial growth inhibition measured at 18 to 24 hrs in presence of 4.5 mM KCl by microdilution assay; assay type: functional; details: time 18-24 hrs
[3] = tested on: RAW264.7; experiment: Antiinflammatory activity in LPS-induced mouse RAW264.7 cells assessed as reduction in TNF alpha level at 20 ug/ml measured after 72 hrs by ELISA assay relative to control; assay type: functional
[4] = tested on: Staphylococcus aureus; experiment: Antibacterial activity against Staphylococcus aureus KCTC 1621 strain assessed as bacterial growth inhibition measured at 18 to 24 hrs in presence of 20% human serum by microdilution assay; assay type: functional; details: time 18-24 hrs
[5] = tested on: Staphylococcus aureus; experiment: Antibacterial activity against methicillin-resistant Staphylococcus aureus CCARM 3089 strain assessed as bacterial growth inhibition by checkerboard assay; assay type: functional
[6] = tested on: Staphylococcus aureus; experiment: Additive antibacterial activity against methicillin-resistant Staphylococcus aureus CCARM 3089 strain assessed as bacterial growth inhibition in presence of chloramphenicol by checkerboard assay; assay type: functional
[7] = tested on: Pseudomonas aeruginosa; experiment: Antibacterial activity against multidrug-resistant Pseudomonas aeruginosa CCARM 2095 strain assessed as bacterial growth inhibition measured at 18 to 24 hrs by microdilution assay; assay type: functional; details: time 18-24 hrs
[8] = tested on: Escherichia coli; experiment: Antibacterial activity against Escherichia coli KCTC 1682 strain assessed as bacterial growth inhibition measured at 18 to 24 hrs in presence of 1 mM MgCl2 by microdilution assay; assay type: functional; details: time 18-24 hrs
[9] = tested on: Escherichia coli; experiment: Antibacterial activity against Escherichia coli KCTC 1682 strain assessed as bacterial growth inhibition measured at 18 to 24 hrs in presence of 20% human serum by microdilution assay; assay type: functional; details: time 18-24 hrs
[10] = tested on: Escherichia coli; experiment: Antibacterial activity against Escherichia coli KCTC 1682 strain assessed as bacterial growth inhibition measured at 18 to 24 hrs in presence of 4 uM FeCl3 by microdilution assay; assay type: functional; details: time 18-24 hrs
[11] = tested on: Escherichia coli; experiment: Antibacterial activity against Escherichia coli KCTC 1682 strain assessed as bacterial growth inhibition measured after 6 hrs in presence of pepsin by radial diffusion assay; assay type: functional, organism-based
[12] = tested on: Staphylococcus aureus; experiment: Antibacterial activity against Staphylococcus aureus KCTC 1621 strain assessed as bacterial growth inhibition measured at 18 to 24 hrs in presence of 6 uM NH4Cl by microdilution assay; assay type: functional; details: time 18-24 hrs
[13] = tested on: Escherichia coli; experiment: Antibacterial activity against Escherichia coli KCTC 1682 strain assessed as bacterial growth inhibition measured at 18 to 24 hrs in presence of 150 mM NaCl by microdilution assay; assay type: functional; details: time 18-24 hrs
[14] = tested on: Staphylococcus epidermidis; experiment: Antibacterial activity against Staphylococcus epidermidis KCTC 1917 strain assessed as bacterial growth inhibition measured at 18 to 24 hrs by microdilution assay; assay type: functional; details: time 18-24 hrs
[15] = tested on: DNA; experiment: Binding affinity to plasmid DNA (unknown origin) assessed as retardation of DNA migration at 4 to 8 ug/ml incubated for 1 hr by agarose gel electrophoresis method; assay type: nucleic-acid assay; details: dose 4-8 µg/ml
[16] = tested on: RAW264.7; experiment: Antiinflammatory activity in LPS-induced mouse RAW264.7 cells assessed as reduction in TNF alpha mRNA expression level at 20 ug/ml measured after 18 hrs by RT-PCR assay relative to control; assay type: functional, cell-based; details: dose 20.0 µg/ml
[17] = tested on: Staphylococcus aureus; experiment: Antibacterial activity against methicillin-resistant Staphylococcus aureus CCARM 3090 strain assessed as bacterial growth inhibition measured at 18 to 24 hrs by microdilution assay; assay type: functional; details: time 18-24 hrs
[18] = tested on: Staphylococcus aureus; experiment: Additive antibacterial activity against methicillin-resistant Staphylococcus aureus CCARM 3089 strain assessed as chloramphenicol MIC by checkerboard assay; assay type: functional
[19] = tested on: Staphylococcus aureus; experiment: Antibacterial activity against Staphylococcus aureus KCTC 1621 strain assessed as bacterial growth inhibition measured at 18 to 24 hrs by microdilution assay; assay type: functional; details: time 18-24 hrs
[20] = tested on: RAW264.7; experiment: Antiinflammatory activity in LPS-induced mouse RAW264.7 cells assessed as reduction in iNOS mRNA expression level at 5 ug/ml measured after 18 hrs by RT-PCR assay relative to control; assay type: functional, cell-based; details: dose 5.0 µg/ml
[21] = tested on: Escherichia coli; experiment: Antibacterial activity against Escherichia coli KCTC 1682 strain assessed as bacterial growth inhibition measured at 18 to 24 hrs by microdilution assay; assay type: functional; details: time 18-24 hrs
[22] = tested on: Escherichia coli; experiment: Antibacterial activity against Escherichia coli KCTC 1682 strain assessed as bacterial growth inhibition measured after 6 hrs in presence of chymotrypsin by radial diffusion assay; assay type: functional, organism-based
[23] = tested on: Staphylococcus aureus; experiment: Antibacterial activity against Staphylococcus aureus KCTC 1621 strain assessed as bacterial growth inhibition measured at 18 to 24 hrs in presence of 150 mM NaCl by microdilution assay; assay type: functional; details: time 18-24 hrs
[24] = tested on: Staphylococcus aureus; experiment: Synergistic antibacterial activity against methicillin-resistant Staphylococcus aureus CCARM 3089 strain assessed as bacterial growth inhibition in presence of oxacillin by checkerboard assay; assay type: functional
[25] = tested on: Staphylococcus aureus; experiment: Synergistic antibacterial activity against methicillin-resistant Staphylococcus aureus CCARM 3089 strain assessed as fractional inhibitory concentration in presence of oxacillin by checkerboard assay; assay type: functional
[26] = tested on: Pseudomonas aeruginosa; experiment: Synergistic antibacterial activity against multidrug-resistant Pseudomonas aeruginosa CCARM 2095 strain assessed as fractional inhibitory concentration index in presence of ciprofloxacin by checkerboard assay; assay type: functional
[27] = tested on: Pseudomonas aeruginosa; experiment: Synergistic antibacterial activity against multidrug-resistant Pseudomonas aeruginosa CCARM 2095 strain assessed as ciprofloxacin fractional inhibitory concentration in presence of ciprofloxacin by checkerboard assay; assay type: functional
[28] = tested on: Staphylococcus aureus; experiment: Synergistic antibacterial activity against multidrug-resistant Staphylococcus aureus CCARM 3089 strain assessed as oxacillin fractional inhibitory concentration by checkerboard assay; assay type: functional
[29] = tested on: Pseudomonas aeruginosa; experiment: Antibiofilm activity against multidrug-resistant Pseudomonas aeruginosa assessed as biofilm eradication; assay type: functional
[30] = tested on: Staphylococcus aureus; experiment: Synergistic antibacterial activity against multidrug-resistant Staphylococcus aureus CCARM 3089 strain assessed as fractional inhibitory concentration index in presence of oxacillin by checkerboard assay; assay type: functional

Structure (SMILES) | MIC [2] [µM] | inhibition at 20 µg/mL [3] [%] | MIC [4] [µM] | MIC [5] [µg/mL] | MIC [6] [µg/mL] | MIC [7] [µM] | MIC [8] [µM] | MIC [9] [µM] | MIC [10] [µM] | Activity [11] | MIC [12] [µM] | MIC [13] [µM] | MIC [14] [µM] | Activity [15] | Activity [16] | MIC [17] [µM] | MIC [18] [µg/mL] | MIC [19] [µM] | Activity [20] | MIC [21] [µM] | other results
N=C(N)NCCNc1nc(NCCNC(=N)N)nc(N2CC(Cc3ccccc3)N(c3nc(NCCNC(=N)N)nc(NCCNC(=N)N)n3)CC2Cc2ccccc2)n1 (stereo not drawn) | 9.7 | 99.8 | 9.6 | 8 | 4 | 19.4 (≈ 16 µg/mL) | 9.7 | 9.7 | 19.4 | Active | 4.8 | 9.7 | 4.8 (≈ 3.96 µg/mL) | Active | Active | 4.8 (≈ 3.96 µg/mL) | 128 | 4.8 (≈ 3.96 µg/mL) | Active | 17.7 (≈ 14.6 µg/mL) | Activity [1]: > 50%; Activity [22]: Active; MIC [23]: 4.8 µM
NCCNc1nc(NCCN)nc(N2CC(Cc3ccccc3)N(c3nc(NCCN)nc(NCCN)n3)CC2Cc2ccccc2)n1 (stereo not drawn) | 6.1 | 72.4 | 12.2 | 32 | 16 | 24.3 (≈ 16 µg/mL) | 6.1 | 12.2 | 12.2 | Active | 6.1 | 6.1 | 6.1 (≈ 4.01 µg/mL) | Active | Active | 3 (≈ 1.97 µg/mL) | 128 | 6.1 (≈ 4.01 µg/mL) | Active | 6.1 (≈ 4.01 µg/mL) | MIC [24]: 8 µg/mL; FIC [25]: 0.25; fractional inhibitory concentration index (FICI) [26]: 0.5; FIC [27]: 0.25; FIC [28]: 0.25; MBEC50 [29]: 24.3 µM; MBEC90 [29]: 97.3 µM; fractional inhibitory concentration index (FICI) [30]: 0.5; Activity [22]: Active; MIC [23]: 6.1 µM

Reference: ChEMBL document CHEMBL5331051, “Cationic, amphipathic small molecules based on a triazine-piperazine-triazine scaffold as a new class of antimicrobial agents” (Eur J Med Chem, 2022)
